The text below walks through data of article PMC9670689 (ACS Omega, 2022).

Values after ≈ are worked out from the molar mass of the structure shown.

One data set relates to neuraminidase. Kind of data set: Colorimetric neuraminidase inhibition assay. In kind it is biochemical.
The subject of data set [1] is Seasonal influenza A/Egypt/NRC098/2019(H1N1). Put plainly: microbe, parasite or virus in culture. The format is cell-based, seasonal human influenza A/H1N1 virus. The conditions noted are these: H1N1, MDCK, in Homo sapiens.

For `CC1=C2[C@H]3OC(=O)[C@@H](C)[C@@H]3CC[C@@]2(C)C=CC1=O` [santonin], the “neuraminidase inhibition activity (in words)” value in the data set on neuraminidase (all tested concentrations (10 mM to 1 μM), compared to zanamivir) was “dose-dependant neuraminidase inhibition activities”. For the same compound, the neuraminidase activity with neuraminidase (following treatment with 1 μM) is reported as 0.65 ± 0.18 units/mL; in the data set with neuraminidase (following treatment with 10 μM) it was 0.42 ± 0.08 units/mL; in the data set with neuraminidase (following treatment with 100 μM), 0.41 ± 0.06 units/mL; in the data set on neuraminidase (following treatment with 1 mM), 0.35 ± 0.11 units/mL; in the data set on neuraminidase (following treatment with 10 mM), 0.14 ± 0.097 units/mL. This compound showed an IC50 in data set [1] of 2.91 µg/mL (≈ 11.8 µM). Further, in the data set with MDCK cells, the “toxic effect in MDCK cells (in words)” value is given as “slightly toxic effect”.
